Assay results from patent publication US20230365566A1, “HETEROCYCLIC AMIDES AND THEIR USE FOR MODULATING SPLICING” (REMIX THERAPEUTICS INC., priority 2020, published 2023).

Tests used:
Type in all cases: cell-based
[1] = test system: HTT CJ mRNA; assay: Gene panel canonical junction qPCR assay, HTT; settings: protocol of Example 42, read-out: HTT IC50 (decrease in CJ mRNA levels)
In short: (§1)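 A673 or K562 cells treated 24 h at 37° C with 11-point 3-fold dilutions (top 10 uM, DMSO ≤0.25%). Canonical junction mRNA quantified by RT-qPCR, normalized to GAPDH, GUSB or PPIA and DMSO control (2^(−ΔΔCt)). 4-parameter logistic fit gives IC50 for CJ decrease.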

[2] = test system: SMN2 CJ mRNA; assay: Gene panel canonical junction qPCR assay, SMN2; settings: protocol of Example 42, read-out: SMN2 IC50 (decrease in CJ mRNA levels)
In short: as §1

[3] = test system: Target C CJ mRNA; assay: Gene panel canonical junction qPCR assay, Target C; settings: protocol of Example 42, read-out: Target C IC50 (decrease in CJ mRNA levels)
In short: as §1

[4] = test system: HTT mRNA canonical junction (CJ); assay: Splicing RT-qPCR assay, decrease of HTT canonical junction (CJ) mRNA; settings: A673 or K562 cells, 24 hours compound treatment, concentration having 50% response in CJ decrease
In short: (§2)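 A673 (DMEM, 10% FBS) or K562 (IMDM, 10% FBS) cells exposed 24 h at 37 °C to an 11-point 3-fold series, top dose 10 uM final, DMSO ≤0.25%. Lysates assayed by RT-qPCR for HTT CJ and AJ, normalized to GAPDH, GUSB or PPIA and DMSO control via 2^(−ΔΔCt).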

[5] = test system: HTT mRNA alternative junction (AJ); assay: Splicing RT-qPCR assay, increase of HTT alternative junction (AJ) mRNA; settings: A673 or K562 cells, 24 hours compound treatment, concentration having 50% response in AJ increase
In short: as §2

Compound: Cc1cn2cc(NC(=O)c3ccc(N4CCNCC4)c4cn(C)nc34)cc(C)c2n1 [Compound 238]
- IC50 [1]: 1 to 10 µM
- IC50 [2]: < 0.1 µM
- IC50 [3]: > 10 µM
- AC50 [4]: 1 to 10 µM
- AC50 [5]: 1 to 10 µM

Compound: CCC1CN(c2ccc(C(=O)Nc3cc(F)c4nc(C)cn4c3)c3nn(C)cc23)CCN1 (stereo not shown) [Compound 239]
- IC50 [1]: 0.1 to 1 µM
- IC50 [2]: < 0.1 µM
- IC50 [3]: 1 to 10 µM
- AC50 [4]: 0.1 to 1 µM
- AC50 [5]: 0.1 to 1 µM

Compound: Cc1cn2cc(NC(=O)c3ccc(N4CCNC(C)(C)C4)c4cn(C)nc34)cc(F)c2n1 [Compound 240]
- IC50 [1]: 0.1 to 1 µM
- IC50 [2]: < 0.1 µM
- IC50 [3]: 1 to 10 µM
- AC50 [4]: 0.1 to 1 µM
- AC50 [5]: 0.1 to 1 µM

Compound: Cc1cn2cc(NC(=O)c3ccc(N4CCNC5(CC5)C4)c4cn(C)nc34)cc(F)c2n1 [Compound 241]
- IC50 [1]: 1 to 10 µM
- IC50 [2]: < 0.1 µM
- IC50 [3]: 1 to 10 µM
- AC50 [4]: 1 to 10 µM
- AC50 [5]: 1 to 10 µM

Compound: Cc1cn2cc(NC(=O)c3ccc(N4CC5(CNC5)C4)c4cn(C)nc34)cc(F)c2n1 [Compound 242]
- IC50 [1]: 0.1 to 1 µM
- IC50 [2]: < 0.1 µM
- IC50 [3]: 1 to 10 µM
- AC50 [4]: 0.1 to 1 µM
- AC50 [5]: 1 to 10 µM

Compound: Cc1cn2cc(NC(=O)c3ccc(N4CC5(CN(C)C5)C4)c4cn(C)nc34)cc(F)c2n1 [Compound 243]
- IC50 [1]: 0.1 to 1 µM
- IC50 [2]: < 0.1 µM
- IC50 [3]: 1 to 10 µM
- AC50 [4]: 0.1 to 1 µM
- AC50 [5]: 0.1 to 1 µM

Compound: Cc1cn2cc(NC(=O)c3ccc(N(C)C4CC(C)(C)NC(C)(C)C4)c4cn(C)nc34)cc(F)c2n1 [Compound 244]
- IC50 [1]: > 10 µM
- IC50 [2]: 0.1 to 1 µM
- IC50 [3]: > 10 µM
- AC50 [4]: > 10 µM
- AC50 [5]: > 10 µM

Compound: Cc1cn2cc(NC(=O)c3ccc(N(C)C4CCN(C)CC4)c4cn(C)nc34)cc(F)c2n1 [Compound 245]
- IC50 [1]: 0.1 to 1 µM
- IC50 [2]: < 0.1 µM
- IC50 [3]: 0.1 to 1 µM
- AC50 [4]: 0.1 to 1 µM
- AC50 [5]: 0.1 to 1 µM

Compound: Cc1cn2cc(NC(=O)c3ccc(N4CCNCC4)c4cn(C)nc34)ncc2n1 [Compound 246]
- IC50 [1]: 1 to 10 µM
- IC50 [2]: < 0.1 µM
- IC50 [3]: > 10 µM
- AC50 [4]: 1 to 10 µM
- AC50 [5]: 1 to 10 µM

Compound: Cc1cn2nc(NC(=O)c3ccc(N4CCNCC4)c4cn(C)nc34)cc2c(C)n1 [Compound 247]
- IC50 [1]: > 10 µM
- IC50 [2]: > 10 µM
- IC50 [3]: > 10 µM
- AC50 [4]: > 10 µM
- AC50 [5]: > 10 µM

Compound: Cc1cn2cc(NC(=O)c3ccc(N4CCC(NC(C)(C)C)C4)c4cn(C)nc34)cc(F)c2n1 (stereo not shown) [Compound 249]
- IC50 [1]: > 10 µM
- IC50 [2]: < 0.1 µM
- IC50 [3]: > 10 µM
- AC50 [4]: > 10 µM
- AC50 [5]: > 10 µM

Compound: Cc1cn2cc(NC(=O)c3ccc(N4CCN5CCCC5C4)c4cn(C)nc34)cc(F)c2n1 (stereo not shown) [Compound 250]
- IC50 [1]: 0.1 to 1 µM
- IC50 [2]: < 0.1 µM
- IC50 [3]: 1 to 10 µM
- AC50 [4]: 0.1 to 1 µM
- AC50 [5]: 0.1 to 1 µM

Compound: Cc1cn2cc(NC(=O)c3ccc(N4CCC(N(C)C)CC4)c4cn(C)nc34)cc(C)c2n1 [Compound 251]
- IC50 [1]: 0.1 to 1 µM
- IC50 [2]: < 0.1 µM
- IC50 [3]: 1 to 10 µM
- AC50 [4]: 0.1 to 1 µM
- AC50 [5]: 0.1 to 1 µM

Compound: CCNC1CCN(c2ccc(C(=O)Nc3cc(F)c4nc(C)cn4c3)c3nn(C)cc23)CC1 [Compound 252]
- IC50 [1]: 0.1 to 1 µM
- IC50 [2]: < 0.1 µM
- IC50 [3]: 0.1 to 1 µM
- AC50 [4]: 0.1 to 1 µM
- AC50 [5]: 0.1 to 1 µM

Compound: Cc1cn2nc(NC(=O)c3ccc(N4CCNCC4)c4nn(C)cc34)nc2c(C)n1 [Compound 253]
- IC50 [1]: > 10 µM
- IC50 [2]: 1 to 10 µM
- IC50 [3]: > 10 µM
- AC50 [4]: > 10 µM
- AC50 [5]: > 10 µM

Compound: Cc1cn2cc(NC(=O)c3ccc(N4C[C@H]5CC[C@@H](C4)N5)c4cc(C)oc34)cc(F)c2n1 [Compound 255]
- IC50 [1]: 1 to 10 µM
- IC50 [2]: < 0.1 µM
- IC50 [3]: > 10 µM
- AC50 [4]: 1 to 10 µM
- AC50 [5]: 1 to 10 µM

Compound: Cc1cn2cc(NC(=O)c3ccc(C4CCN(C)CC4)c4cc(C)oc34)cc(F)c2n1 [Compound 256, N-[8-fluoro-2-methylimidazo[1,2-a]pyridin-6-yl]-2-methyl-4-(1-methylpiperidin-4-yl)-1-benzofuran-7-carboxamide]
- IC50 [1]: 1 to 10 µM
- IC50 [2]: < 0.1 µM
- IC50 [3]: > 10 µM
- AC50 [4]: 1 to 10 µM
- AC50 [5]: 1 to 10 µM

Compound: CCN1CCC(c2ccc(C(=O)Nc3cc(F)c4nc(C)cn4c3)c3oc(C)cc23)CC1 [Compound 257, 4-(1-ethylpiperidin-4-yl)-N-[8-fluoro-2-methylimidazo[1,2-a]pyridin-6-yl]-2-methyl-1-benzofuran-7-carboxamide]
- IC50 [1]: 1 to 10 µM
- IC50 [2]: < 0.1 µM
- IC50 [3]: > 10 µM
- AC50 [4]: 1 to 10 µM
- AC50 [5]: 1 to 10 µM

Compound: Cc1cn2cc(NC(=O)c3ccc(N4CCC(N(C)C)C4)c4cn(C)nc34)cc(F)c2n1 (stereo not shown) [Compound 258]
- IC50 [1]: 1 to 10 µM
- IC50 [2]: < 0.1 µM
- IC50 [3]: 1 to 10 µM
- AC50 [4]: 1 to 10 µM
- AC50 [5]: 0.1 to 1 µM

Compound: Cc1cn2cc(NC(=O)c3ccc(N4CCC(NC(C)(C)C)CC4)c4cn(C)nc34)cc(F)c2n1 [Compound 259]
- IC50 [1]: 1 to 10 µM
- IC50 [2]: < 0.1 µM
- IC50 [3]: 1 to 10 µM
- AC50 [4]: 1 to 10 µM
- AC50 [5]: 1 to 10 µM

Compound: Cc1cn2cc(NC(=O)c3ccc(N4C[C@H]5CC[C@@H](C4)N5)c4cn(C)nc34)cc(F)c2n1 [Compound 260]
- IC50 [1]: 0.1 to 1 µM
- IC50 [2]: < 0.1 µM
- IC50 [3]: > 10 µM
- AC50 [4]: 0.1 to 1 µM
- AC50 [5]: 0.1 to 1 µM

Compound: Cc1cc2c(N3CCNCC3)ccc(C(=O)Nc3ccc4cn(C)nc4c3)c2o1 [Compound 261, 2-methyl-N-(2-methylindazol-6-yl)-4-(piperazin-1-yl)-1-benzofuran-7-carboxamide]
- IC50 [1]: 1 to 10 µM
- IC50 [2]: 1 to 10 µM
- IC50 [3]: > 10 µM
- AC50 [4]: 1 to 10 µM
- AC50 [5]: 1 to 10 µM

Compound: Cc1cn2cc(NC(=O)c3ccc(N4CCNCC4)c4cc(C)oc34)c(C)cc2n1 [Compound 262]
- IC50 [1]: > 10 µM
- IC50 [2]: < 0.1 µM
- IC50 [3]: > 10 µM
- AC50 [4]: > 10 µM
- AC50 [5]: > 10 µM

Compound: Cc1cn2cc(NC(=O)c3ccc(N4CCNCC4)c4cc(C)oc34)ncc2n1 [Compound 263]
- IC50 [1]: 1 to 10 µM
- IC50 [2]: < 0.1 µM
- IC50 [3]: 1 to 10 µM
- AC50 [4]: 1 to 10 µM
- AC50 [5]: 1 to 10 µM

Compound: Cc1cn2nc(NC(=O)c3ccc(N4CCNCC4)c4cc(C)oc34)nc2c(C)n1 [Compound 264]
- IC50 [1]: > 10 µM
- IC50 [2]: > 10 µM
- IC50 [3]: > 10 µM
- AC50 [4]: > 10 µM
- AC50 [5]: > 10 µM

Compound: Cc1cn2nc(NC(=O)c3ccc(N4CCNCC4)c4cc(C)oc34)cc2c(C)n1 [Compound 265]
- IC50 [1]: > 10 µM
- IC50 [2]: 1 to 10 µM
- IC50 [3]: > 10 µM
- AC50 [4]: > 10 µM
- AC50 [5]: > 10 µM

Compound: Cc1cn2cc(NC(=O)c3ccc(N4CCNCC4)c4cc(C)oc34)cc(Cl)c2n1 [Compound 266]
- IC50 [1]: 1 to 10 µM
- IC50 [2]: < 0.1 µM
- IC50 [3]: > 10 µM
- AC50 [4]: 1 to 10 µM
- AC50 [5]: 1 to 10 µM

Compound: Cc1cn2cc(NC(=O)c3ccc(N4CCNCC4)c4cc(C)oc34)cc(C)c2n1 [Compound 267]
- IC50 [1]: > 10 µM
- IC50 [2]: < 0.1 µM
- IC50 [3]: > 10 µM
- AC50 [4]: > 10 µM
- AC50 [5]: 1 to 10 µM

Compound: Cc1cc2c(N3CCNCC3)ccc(C(=O)Nc3cn[nH]c3)c2o1 [Compound 268]
- IC50 [1]: > 10 µM
- IC50 [2]: > 10 µM
- IC50 [3]: > 10 µM
- AC50 [4]: > 10 µM
- AC50 [5]: > 10 µM
